Results: US5593985A, “Cephalosporin compounds” (priority 1994, dated 1997)
Converted amounts (≈) assume the structure as drawn.

Experiments:
Escherichia coli DC 2 = experiment: MIC, standard strain 9; assay type: cell-based; conditions: DC2, E. coli DC 2, two-fold dilution, Muller Hinton agar, 10^7 CFU/ml, 37° C., 18 hours, read-out: Minimal Inhibitory Concentration(MIC)
Protocol: (§1) In order to illustrate antibiotic effectiveness of the compounds of the present invention, the minimal inhibitory concentrations (MIC's) of the representative compounds were determined against standard strains and compared with ceftazidime and cefpirome, which were used as control compounds.
(§2) The MIC values were taken by employing a two-fold dilution method: that is, two-fold serial dilutions of each of the test compounds were made from initial concentration of […]; each 1.5 ml of them was dispersed in 13.5 ml of Muller Hinton agar medium to adjust to […]; the standard test strain which had the concentration of 10^7 CFU/ml was inoculated by medium;and these were incubated at 37° C. for 18 hours.
(§3) The test used twenty kinds of standard test strains which induced urinary tract infections, respiratory organ infections, skin soft tissue infections, plasma infections, gastrointestinal infections, central nervous system infections, most of which produce β-lactamase.

[1] = tested on: Pseudomonas aeruginosa 1592 E; experiment: MIC, standard strain 13; assay type: cell-based; conditions: P. aeruginosa 1592 E, two-fold dilution, Muller Hinton agar, 10^7 CFU/ml, 37° C., 18 hours, read-out: Minimal Inhibitory Concentration(MIC)
Protocol: as §1, §2
as §3, with “β-lactamase. The standard test strains used are as follows:” for “β-lactamase.”
13. Pseudomonas aeruginosa 1592 E

Klebsiella oxytoca = experiment: MIC, clinically separated strains; assay type: cell-based; conditions: 18 h
Protocol: as §2

Escherichia coli = experiment: MIC, clinically separated strains; assay type: cell-based; conditions: 18 h
Protocol: as §2

Providencia rettgeri = experiment: MIC, clinically separated strains; assay type: cell-based; conditions: 18 h, read-out: range of MIC, 6 clinical strains
Protocol: as §2

ATCC = experiment: MIC, clinically separated strains; assay type: cell-based; conditions: 18 h; 20 strains
Protocol: as §2

Methicillin Resistant = experiment: MIC, clinically separated strains; assay type: cell-based; conditions: 18 h, 19 clinical strains
Protocol: as §2

D Streptococcus I = experiment: MIC, clinically separated strains; assay type: cell-based; conditions: 18 h
Protocol: as §2

Serratia spp = experiment: MIC, clinically separated strains; assay type: cell-based; conditions: 18 h
Protocol: as §2

Pseudomonas I = experiment: MIC, clinically separated strains; assay type: cell-based; conditions: 18 h
Protocol: as §2

Enterococcus II = experiment: MIC, clinically separated strains; assay type: cell-based; conditions: 18 h
Protocol: as §2

Enterococcus I = experiment: MIC, clinically separated strains; assay type: cell-based; conditions: 18 h
Protocol: as §2

[2] = tested on: Streptococcus pyogenes A 77; experiment: MIC, standard strain 2; assay type: cell-based; conditions: A77, S. pyogenes A 77, two-fold dilution, Muller Hinton agar, 10^7 CFU/ml, 37° C., 18 hours, read-out: Minimal Inhibitory Concentration(MIC)
Protocol: as §1, §2
as §3, with “β-lactamase. The standard test strains used are as follows:” for “β-lactamase.”
2. Streptococcus pyogenes A 77

Escherichia coli 1507 E = experiment: MIC, standard strain 11; assay type: cell-based; conditions: E. coli 1507 E, two-fold dilution, Muller Hinton agar, 10^7 CFU/ml, 37° C., 18 hours, read-out: Minimal Inhibitory Concentration(MIC)
Protocol: as §1, §2, §3

Escherichia coli TEM = experiment: MIC, standard strain 10; assay type: cell-based; conditions: 18 h, read-out: Minimal Inhibitory Concentration(MIC)
Protocol: as §1, §2, §3

[3] = tested on: Pseudomonas aeruginosa 1771; experiment: MIC, standard strain 14; assay type: cell-based; conditions: Pseudomonas aeruginosa; P. aeruginosa 1771; two-fold dilution, Muller Hinton agar, 10^7 CFU/ml, 37° C., 18 hours; read-out: Minimal Inhibitory Concentration(MIC)
Protocol: as §1, §2
as §3, with “β-lactamase. The standard test strains used are as follows:” for “β-lactamase.”
14. Pseudomonas aeruginosa 1771

[4] = tested on: Pseudomonas aeruginosa 1771M; experiment: MIC, standard strain 15; assay type: cell-based; conditions: 18 h, read-out: Minimal Inhibitory Concentration(MIC)
Protocol: as §1, §2
as §3, with “β-lactamase. The standard test strains used are as follows:” for “β-lactamase.”
15. Pseudomonas aeruginosa 1771M

[5] = tested on: Staphylococcus aureus SG 511; experiment: MIC, standard strain 4; assay type: cell-based; conditions: SG511, S. aureus SG 511, two-fold dilution, Muller Hinton agar, 10^7 CFU/ml, 37° C., 18 hours, read-out: Minimal Inhibitory Concentration(MIC)
Protocol: as §1, §2
as §3, with “β-lactamase. The standard test strains used are as follows:” for “β-lactamase.”
4. Staphylococcus aureus SG 511

Streptococcus faecium 8b = experiment: MIC, standard strain 3; assay type: cell-based; conditions: Enterococcus faecium; S. faecium 8b; two-fold dilution, Muller Hinton agar, 10^7 CFU/ml, 37° C., 18 hours; read-out: Minimal Inhibitory Concentration(MIC)
Protocol: as §1, §2
as §3, with “β-lactamase. The standard test strains used are as follows:” for “β-lactamase.”
3. Streptococcus faecium 8b

[6] = tested on: Enterobacter cloacae 1321 E; experiment: MIC, standard strain 20; assay type: cell-based; conditions: E. cloacae 1321 E, two-fold dilution, Muller Hinton agar, 10^7 CFU/ml, 37° C., 18 hours, read-out: Minimal Inhibitory Concentration(MIC)
Protocol: as §1, §2
as §3, with “β-lactamase. The standard test strains used are as follows:” for “β-lactamase.”
20. Enterobacter cloacae 1321 E

[7] = tested on: Klebsiella aerogenes 1552 E; experiment: MIC, standard strain 18; assay type: cell-based; conditions: K. aerogenes 1552 E, two-fold dilution, Muller Hinton agar, 10^7 CFU/ml, 37° C., 18 hours, read-out: Minimal Inhibitory Concentration(MIC)
Protocol: as §1, §2
as §3, with “β-lactamase. The standard test strains used are as follows:” for “β-lactamase.”
18. Klebsiella aerogenes 1552 E

Escherichia coli 0 55 = experiment: MIC, standard strain 7; assay type: cell-based; conditions: 055, E. coli 0 55, two-fold dilution, Muller Hinton agar, 10^7 CFU/ml, 37° C., 18 hours, read-out: Minimal Inhibitory Concentration(MIC)
Protocol: as §1, §2, §3

D StreptococcusII = experiment: MIC, clinically separated strains; assay type: cell-based, D Streptococcus; conditions: Streptococcus, 18 h
Protocol: as §2

Salmonella typhimurium = experiment: MIC, standard strain 16; assay type: cell-based; conditions: Salmonella enterica; S. typhimurium; two-fold dilution, Muller Hinton agar, 10^7 CFU/ml, 37° C., 18 hours; read-out: Minimal Inhibitory Concentration(MIC)
Protocol: as §1, §2
as §3, with “β-lactamase. The standard test strains used are as follows:” for “β-lactamase.”
16. Salmonella typhimurium

[8] = read-out: range of MIC, 20 clinical strains

SMILES: CO/N=C(\C(=O)N[C@@H]1C(=O)N2C(C(=O)[O-])=C(C[n+]3cccc4c3CCC4)CS[C@H]12)c1csc(N)n1 [cefpirome, reference compound]
- MIC (Escherichia coli DC 2): 49 µg/mL (≈ 95.2 µM)
- MIC [1]: 1560 µg/mL (≈ 3040 µM)
- MIC50 (Klebsiella oxytoca; 20 clinical strains): 0.025 µg/mL (≈ 0.0486 µM)
- MIC90 (Klebsiella oxytoca; 20 clinical strains): 0.781 µg/mL (≈ 1.52 µM)
- MIC (Klebsiella oxytoca; [8]): 0.007 to 0.391 µg/mL (≈ 0.0136 to 0.76 µM)
- MIC50 (Escherichia coli; 20 clinical strains): 0.025 µg/mL (≈ 0.0486 µM)
- MIC90 (Escherichia coli; 20 clinical strains): 0.049 µg/mL (≈ 0.0952 µM)
- MIC (Escherichia coli; [8]): 0.025 to 0.391 µg/mL (≈ 0.0486 to 0.76 µM)
- MIC (Providencia rettgeri): 0.004 to 0.098 µg/mL (≈ 0.00777 to 0.19 µM)
- MIC50 (ATCC): 0.098 µg/mL (≈ 0.19 µM)
- MIC90 (ATCC): 25 µg/mL (≈ 48.6 µM)
- MIC (Methicillin Resistant; read-out: range of MIC): 0.781 to 100 µg/mL (≈ 1.52 to 194 µM)
- MIC50 (Methicillin Resistant): 12.5 µg/mL (≈ 24.3 µM)
- MIC90 (Methicillin Resistant): 100 µg/mL (≈ 194 µM)
- MIC50 (D Streptococcus I; 20 clinical strains): 25 µg/mL (≈ 48.6 µM)
- MIC90 (D Streptococcus I; 20 clinical strains): 50 µg/mL (≈ 97.2 µM)
- MIC (D Streptococcus I; [8]): 12.5 to 100 µg/mL (≈ 24.3 to 194 µM)
- MIC50 (Serratia spp; 20 clinical strains): 0.049 µg/mL (≈ 0.0952 µM)
- MIC90 (Serratia spp; 20 clinical strains): 0.098 µg/mL (≈ 0.19 µM)
- MIC (Serratia spp; [8]): 0.025 to 0.049 µg/mL (≈ 0.0486 to 0.0952 µM)
- MIC50 (Pseudomonas I): 1.56 µg/mL (≈ 3.04 µM)
- MIC90 (Pseudomonas I): 6.25 µg/mL (≈ 12.1 µM)
- MIC (Pseudomonas I; read-out: range of MIC): 0.781 to 12.5 µg/mL (≈ 1.52 to 24.3 µM)
- MIC50 (Enterococcus II; 20 clinical strains): 0.049 µg/mL (≈ 0.0952 µM)
- MIC90 (Enterococcus II; 20 clinical strains): 1.56 µg/mL (≈ 3.04 µM)
- MIC (Enterococcus II; [8]): 0.007 to 3.12 µg/mL (≈ 0.0136 to 6.07 µM)
- MIC50 (Enterococcus I; 20 clinical strains): 0.025 µg/mL (≈ 0.0486 µM)
- MIC90 (Enterococcus I; 20 clinical strains): 0.098 µg/mL (≈ 0.19 µM)
- MIC (Enterococcus I; read-out: range of MIC): 0.013 to 0.195 µg/mL (≈ 0.0253 to 0.379 µM)
- MIC [2]: 98 µg/mL (≈ 190 µM)
- MIC (Escherichia coli 1507 E): 75 µg/mL (≈ 146 µM)
- MIC (Escherichia coli TEM): 49 µg/mL (≈ 95.2 µM)
- MIC [3]: 391 µg/mL (≈ 760 µM)
- MIC [4]: 195 µg/mL (≈ 379 µM)
- MIC [5]: 391 µg/mL (≈ 760 µM)
- MIC (Streptococcus faecium 8b): 25000 µg/mL (≈ 48600 µM)
- MIC [6]: 13 µg/mL (≈ 25.3 µM)
- MIC [7]: 25 µg/mL (≈ 48.6 µM)
- MIC (Escherichia coli 0 55): 13 µg/mL (≈ 25.3 µM)
- MIC (D StreptococcusII; read-out: range of MIC): 6.25 to 100 µg/mL (≈ 12.1 to 194 µM)
- MIC50 (D StreptococcusII; 19 clinical strains): 50 µg/mL (≈ 97.2 µM)
- MIC90 (D StreptococcusII; 19 clinical strains): 100 µg/mL (≈ 194 µM)
- MIC (Salmonella typhimurium): 25 µg/mL (≈ 48.6 µM)
